# Assay results from PubChem BioAssay (NCI).
#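 Cells were grown in 96-well plates and exposed to each compound for 48 hours at five concentrations; endpoints were interpolated linearly between bracketing concentrations, or set to the highest concentration if not reached. The concentration for 50% growth inhibition is given as GI50. The concentration for full growth arrest is given as TGI.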
# Columns and labels:
# Assay in all cases: DTP human tumour cell line panel, 48 h
# CAKI-1 renal = tested on: CAKI-1 renal
# HT29 colon = tested on: HT29 colon
# M14 melanoma = tested on: M14 melanoma
# MALME-3M melanoma = tested on: MALME-3M melanoma
# NCI-H522 lung = tested on: NCI-H522 lung
# OVCAR-3 ovarian = tested on: OVCAR-3 ovarian
# OVCAR-4 ovarian = tested on: OVCAR-4 ovarian
# OVCAR-8 ovarian = tested on: OVCAR-8 ovarian
# SN12C renal = tested on: SN12C renal
# DU-145 prostate = tested on: DU-145 prostate
Compound,TGI (CAKI-1 renal) [µM],TGI (HT29 colon) [µM],TGI (M14 melanoma) [µM],TGI (MALME-3M melanoma) [µM],TGI (NCI-H522 lung) [µM],TGI (OVCAR-3 ovarian) [µM],TGI (OVCAR-4 ovarian) [µM],TGI (OVCAR-8 ovarian) [µM],TGI (SN12C renal) [µM],GI50 (CAKI-1 renal) [µM],GI50 (DU-145 prostate) [µM],TGI (DU-145 prostate) [µM],GI50 (HT29 colon) [µM],GI50 (M14 melanoma) [µM],GI50 (NCI-H522 lung) [nM],GI50 (OVCAR-3 ovarian) [nM],GI50 (OVCAR-8 ovarian) [µM],GI50 (SN12C renal) [µM],GI50 (MALME-3M melanoma) [µM],GI50 (OVCAR-4 ovarian) [µM]
Cc1cccc(C(C)(C)C)c1NC(=O)CC1C(=O)Nc2ccccc2S1=O (centres undefined),> 100,> 100,> 100,> 100,> 100,> 100,80.1,> 100,> 100,,,,,,,,,,,
COc1cc2c(cc1OC)-c1c(cnn1C1OC(COC(C)=O)C(OC(C)=O)C(OC(C)=O)C1OC(C)=O)CC2 (centres undefined),> 100,> 100,> 100,,37.3,> 100,> 100,> 100,,,,,,,,,,,,
CCN=C1NN=C(c2ccccc2)c2cc(Cl)ccc2N1,36.9,32.3,33.5,33.7,30.2,43.7,> 100,69.4,88.5,,,,,,,,,,,
CCCCCCN1C(=O)/C(=c2\sc3n(c2=O)C2C(NN=3)N(CC)C(=O)N2CC)c2ccccc21 (centres undefined),> 50,> 50,> 50,,> 50,2.06,,> 50,> 50,1.82,2.52,> 50,1.5,3.24,1450,966,1.47,2.74,,
Cn1c2ccccc2c2c(=O)n(CCCC(=O)NCC(=O)OC(=NC3CCCCC3)NC3CCCCC3)c3c(-c4ccccc4)nnn3c21,> 100,,> 100,> 100,80.4,96.2,,> 100,50.7,32.1,18.4,> 100,,31.2,15900,19600,7.37,19.5,47.2,
CCCOc1ccc(/C=C\c2cc(OC)c(OC)c(OC)c2)cc1,> 100,> 100,> 100,> 100,> 100,> 100,> 100,> 100,> 100,,,,,,,,,,,
CCOC(=O)c1sc(=S)c2c(C(=O)c3ccccc3)c(C(=O)c3ccccc3)sc2c1C(=O)OCC,> 100,> 100,> 100,,6.89,5.93,> 100,> 100,19.2,3.93,4.07,> 100,6.9,5.56,2660,2010,3.44,3.16,,9.58
CCOC(=O)/C(C#N)=C(O)/C(=C/c1ccccc1Cl)NC(=O)c1ccccc1,> 100,> 100,> 100,> 100,> 100,> 100,> 100,> 100,> 100,,,,,,,,,,,
C=CCOc1cc2c(cc1C(C)c1ccc(OC)cc1)OCO2 (centres undefined),> 100,2.26,> 42.8,> 100,0.541,,> 100,5.97,> 100,,,> 100,,,,,,,,
O=C(CNC(=O)c1cccc2ccccc12)Nc1ccccc1Oc1cccc(O)c1,,> 25,> 25,> 25,> 25,> 25,> 25,> 25,> 25,,9.47,> 25,21.4,1.56,1620,1500,11.4,> 25,5.88,> 25
COc1ccc(C2=NNC(c3ccc(-c4ccc(OC)cc4[N+](=O)[O-])o3)C2)cc1 (centres undefined),,> 100,> 100,69.5,> 100,62.2,> 100,75.5,,,36.3,> 100,44.9,71.3,34900,21000,21.2,,0.412,> 100
O=S(=O)(O)C(F)(F)C(F)(F)C(F)(F)C(F)(F)F,> 100,> 100,> 100,> 100,,> 100,> 100,> 100,> 100,,,,,,,,,,,
Clc1ccc(C2=Nc3ccccc3SC(c3ccc(Cl)c(Cl)c3)C2)c(Cl)c1 (centres undefined),29.6,28.5,30.1,29.9,28,26.1,36.6,31.1,33.1,,,,,,,,,,,
CC1(C)OC2C(CO)OC(n3ccc(=O)[nH]c3=O)C2O1 (centres undefined),> 100,,> 100,,> 100,> 100,,> 100,> 100,,,> 100,,,,,,,,
N#Cc1nc(-c2cccc(Br)c2)cc(-c2ccc(Nc3nc(N4CCCCC4)nc(N4CCCCC4)n3)cc2)c1N,5.03,4.09,7.5,3.1,4.72,3.54,,> 100,> 100,1.93,3.13,10.2,1.22,2.84,1780,1760,2.66,2.82,1.68,
CCNC(=O)C(O)C1(O)CCC2[C@@H]3CCC4=CC(=O)C=C[C@]4(C)C3[C@@H](O)C[C@@]21C (some centres undefined),> 100,> 100,> 100,> 100,> 100,> 100,> 100,> 100,> 100,,,,,,,,,,,
O=C(O)CC(Cc1ccc2c(c1)OCO2)C(=O)O (centres undefined),,> 100,> 100,> 100,> 100,> 100,> 100,> 100,> 100,,,> 100,,,,,,,,
Nc1cc(N)c2nc(-c3ccccc3)c(Nc3ccc(F)cc3)nc2c1,40.4,35.3,43.3,,> 100,17.8,48.8,30.3,33.9,19.2,12,28.3,18.6,16.3,> 100000,4660,12.4,15.6,,13.4
